Experimental data published in PubChem BioAssay AID1963973 (Molecular Pharmacology Branch, DTP, NCI, 2024).
pIC50: −log10 of the molar value.

Test system: 883617-216-R-J1-PDC tumor spheroids, viability
Assay: Anticancer human tumor 883617-216-R-J1-PDC patient-derived bladder carcinoma cell line growth inhibition [PI3K]
Conditions: spheroids with HUVEC and MSC; for pIC50: curve of first compound; for viability, T/C: stronger effect = lower value
In short: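 Complex 3D spheroids (cancer cells + endothelial HUVEC + mesenchymal stem cells); drug pairs of targeted agent x inavolisib/alpelisib/duvelisib/copanlisib; half-log series from ~Cmax, max 10 microM if Cmax unknown; endpoint viability.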
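Note: spheroids exposed to agents for 7 days before the viability read.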

CC1(C)CCC(Nc2ncc(C(F)(F)F)c(-c3c[nH]c4c(P(C)(C)=O)c(C#N)ccc34)n2)CN1 (configuration not stated) + Cc1nc(NC(=O)N2CCCC2C(N)=O)sc1-c1ccnc(C(C)(C)C(F)(F)F)c1
pIC50 (second compound 0.0316 µM): > 7.50 | pIC50 (second compound 0.1 µM): > 7.50 | pIC50 (second compound 0.316 µM): > 7.50 | pIC50 (second compound 1 µM): > 7.50 | pIC50 (second compound 3.16 µM): > 7.50 | pIC50 (second compound 10 µM): > 7.50 | viability, T/C (second compound 0.0316 µM, first compound 0.0316 µM): 35% | viability, T/C (second compound 0.0316 µM, first compound 0.1 µM): 25.2% | viability, T/C (second compound 0.0316 µM, first compound 0.316 µM): 21.7% | viability, T/C (second compound 0.0316 µM, first compound 1 µM): 18.4% | viability, T/C (second compound 0.0316 µM, first compound 3.16 µM): 7.32% | viability, T/C (second compound 0.0316 µM, first compound 10 µM): 0.34% | viability, T/C (second compound 0.1 µM, first compound 0.0316 µM): 27.1% | viability, T/C (second compound 0.1 µM, first compound 0.1 µM): 23.6% | viability, T/C (second compound 0.1 µM, first compound 0.316 µM): 25.7% | viability, T/C (second compound 0.1 µM, first compound 1 µM): 20.1% | viability, T/C (second compound 0.1 µM, first compound 3.16 µM): 5.12% | viability, T/C (second compound 0.1 µM, first compound 10 µM): 0.15% | viability, T/C (second compound 0.316 µM, first compound 0.0316 µM): 23.2% | viability, T/C (second compound 0.316 µM, first compound 0.1 µM): 25.2% | viability, T/C (second compound 0.316 µM, first compound 0.316 µM): 23.2% | viability, T/C (second compound 0.316 µM, first compound 1 µM): 12.9% | viability, T/C (second compound 0.316 µM, first compound 3.16 µM): 4.57% | viability, T/C (second compound 0.316 µM, first compound 10 µM): 0.17% | viability, T/C (second compound 1 µM, first compound 0.0316 µM): 18.1% | viability, T/C (second compound 1 µM, first compound 0.1 µM): 18.6% | viability, T/C (second compound 1 µM, first compound 0.316 µM): 14.2% | viability, T/C (second compound 1 µM, first compound 1 µM): 19.3% | viability, T/C (second compound 1 µM, first compound 3.16 µM): 3.08% | viability, T/C (second compound 1 µM, first compound 10 µM): 0.12% | viability, T/C (second compound 3.16 µM, first compound 0.0316 µM): 11.7% | viability, T/C (second compound 3.16 µM, first compound 0.1 µM): 11.7% | viability, T/C (second compound 3.16 µM, first compound 0.316 µM): 8.82% | viability, T/C (second compound 3.16 µM, first compound 1 µM): 11.7% | viability, T/C (second compound 3.16 µM, first compound 3.16 µM): 1.63% | viability, T/C (second compound 3.16 µM, first compound 10 µM): 0.09% | viability, T/C (second compound 10 µM, first compound 0.0316 µM): 5.1% | viability, T/C (second compound 10 µM, first compound 0.1 µM): 4.07% | viability, T/C (second compound 10 µM, first compound 0.316 µM): 4.35% | viability, T/C (second compound 10 µM, first compound 1 µM): 3.57% | viability, T/C (second compound 10 µM, first compound 3.16 µM): 0.59% | viability, T/C (second compound 10 µM, first compound 10 µM): 0.16%
